In US10406218B2 (priority 2014, dated 2019):
Read-outs that look alike come from different tables or passages of the source.

Assays:
Assay type in all cases: cell-based, human
[1] = test system: IL-10 production by cells of HC donors; settings: for IL-10 SFC: HC donors; for # resp IL-10: number of responding HC donors out of # tested (5 or 6)
[2] = test system: IFNγ production by cells of HC donors; assay: IFNγ production (SFC) in HC donors in response to broadly conserved peptides; settings: for IFNg SFC: HC donors; for # resp IFNg: number of responding HC donors out of # tested (5 or 6)
Experimental: To test this hypothesis, the HLA binding capacity of the 4241 broadly conserved peptides for common HLA class II alleles was predicted. Next peptides were selected predicted to bind with high affinity to alleles expressed in representative HC donors were tested for IL-10 production. Several frequently recognized IL-10 producing peptides could be identified (FIG. 13A), none of which produced a significant amount of IFNγ (FIG. 13B).

[3] = test system: PBMC from 30 HC individuals; assay: ex vivo IFNγ ELISPOT with NTM-specific peptides
CD4+ memory T cells = test system: CD4+ memory T cells
[4] = test system: T cells of LTBI and HC donors; assay: antigen reactivity in LTBI vs HC donors (LTBI-specific or crossreactive); settings: response frequency and magnitude in LTBI vs HC donors, FIG. 10
From the text: The data herein implies that preexisting immunity and occasional boosting might be provided by exposure to NTMs, in a low MTB-complex exposure population such as the one from the general San Diego area. This might be viewed as desirable, or alternatively contributing an undesired confounding factor in evaluation of vaccination strategies. Regardless, whether or not preexisting, non-TB-complex related reactivity is present in the general population is an important issue has implication for the development of vaccination strategies. To further investigate this issue, epitope reactivity data (Lindestamm-Arlehamn et al, 2012) was mapped back to the specific antigens from which the epitopes were derived. Antigens recognized by 2 or more donors were further categorized as LTBI-specific or crossreactive according to the following criteria; antigens were categorized as LTBI-specific if there was a lack of reactivity in HC individuals, or if the ratio between response frequency and total SFC for LTBI/HC were >4. All other antigens were categorized as crossreactive.

[5] = response frequency among HC donors, NTM-specific peptides (Table 2)
[6] = total spot forming cells, IFNγ ELISPOT, NTM-specific peptides (Table 2)

Substance	IL-10 SFC [1] [SFC]	# resp IL-10 [1]	IFNg SFC [2] [SFC]	# resp IFNg [2]	Resp Freq [3] [%]	Total SFC [3] [SFC]	Resp Freq [3, 5] [%]	Total SFC [3, 6] [SFC]	epitope-specific cells in CD4+ naive subset or CD4+ memory subset of control donors (CD4+ memory T cells)	frequency of epitope-specific CD4+ memory T cells, median (CD4+ memory T cells; 5 LTBI donors, median (interquartile range 0.03-0.33))	antigen reactivity category (LTBI-specific or crossreactive) [4]
AELTRVRQQVIQLLS [Peptide 3580.0001]	733	4	27	0							
AKSVLIFLGIPLLAG [Peptide 3580.0010]	892	4	35	0							
APFISEFLVLLGTFS [Peptide 3580.0005]	585	3	15	0							
ASCKYMKMITPAALL [Peptide 3580.0015]	730	4	32	0							
ASGLIFGWLAFLLVF [Peptide 3580.0018]	652	4	20	0							
ASVSKQFTATAILLL [Peptide 3580.0013]	918	4	23	0							
ATFAGIYFWFPKMTG [Peptide 3580.0008]	1328	6	28	0							
DRIAQLLVQRVELVE [Peptide 3580.0009]	1018	5	50	0							
ESFLFYSGFYLPMYW [Peptide 3580.0002]	570	4	8	0							
ETTRNLIALGTLALI [Peptide 829]					3	93	3	93			
FAIMFEALFILTTVD [Peptide 3580.0006]	915	5	32	0							
FTGKPEFVENFFMFI [Peptide 3580.0004]	622	3	27	0							
FVTYWSFRMMIGLMA [Peptide 3580.0003]	563	4	10	0							
GRFIALLRIFAGPLA [Peptide 3580.0011]	1480	5	52	0							
GRLIGWLAKVLAEHP [Peptide 1258]					3	60	3	60			
GSMLWVAALIGEEIF [Peptide 587]					7	68	7	68			
HEEIQLLANDFSTML [Peptide 446]					3	182	3	182			
HQGLAFLLADMAAAV [Peptide 8]					3	58	3	58			
IGQFGIGFYSSFMVA [Peptide 3580.0012]	468	3	10	0							
KDVFFYEPIILPEKS [Peptide 752]					3	78	3	78			

Substance	IL-10 SFC [1] [SFC]	# resp IL-10 [1]	IFNg SFC [2] [SFC]	# resp IFNg [2]	Resp Freq [3] [%]	Total SFC [3] [SFC]	Resp Freq [3, 5] [%]	Total SFC [3, 6] [SFC]	epitope-specific cells in CD4+ naive subset or CD4+ memory subset of control donors (CD4+ memory T cells)	frequency of epitope-specific CD4+ memory T cells, median (CD4+ memory T cells; 5 LTBI donors, median (interquartile range 0.03-0.33))	antigen reactivity category (LTBI-specific or crossreactive) [4]
KWETFLTQELPAYLA [Peptide 741]					13	248	13	248			
LAMFAIIFFWTPPHT [Peptide 3580.0016]	1142	5	27	0							
LGVAALLFGFPIFFD [Peptide 391]					3	77	3	77			
LMLIWACDLIVAADN [Peptide 1224]					10	97	10	97			
LMVLFQYGVALHELE [Peptide 7]					3	138	3	138			
LPFFSFMTYLIAVPT [Peptide 3580.0007]	505	4	22	0							
LSSTEFELLRFLMRN [Peptide 3580.0020]	1017	5	33	0							
MVAFMVRYTSGYLCV [Peptide 3580.0017]	1058	4	8	0							
PKLKQFMSDVVWIEH [Peptide 775]					7	70	7	70			
PLAENYLRLNALGAY [Peptide 1364]					3	228	3	228			
QAAVVRFQEAANKQK [CFP1052-66]									No epitope-specific cells were detected	0.09	
QWGYRMVLPQLILMP [Peptide 868]					3	58	3	58			
RELIRAFWPGALSLV [Peptide 3580.0019]	422	3	27	0							
RFTLLRPLLFTIAYE [Peptide 311]					3	477	3	477			
RLFPVIRRYALAYHV [Peptide 582]					10	158	10	158			
Rv3804c: MTB antigen currently included in TB vaccines in clinical development											widely cross-reactive
SLHMFFHRLGPVLAR [Peptide 329]					7	167	7	167			
SQRLVTLSYRLDAAA [Peptide 1471]					7	58	7	58			
YNVVIYPVTTLRLAM [Peptide 1556]					3	122	3	122			
YVLFLFTQTVRHRDF [Peptide 3580.0014]	975	4	53	0							
